According to ChEMBL document CHEMBL1146161, “Synthesis and anti-HIV properties of new hydroxyquinoline-polyamine conjugates on cells infected by HIV-1 LAV and HIV-1 BaL viral strains” (Bioorg Med Chem Lett, 2006):
The source made the active and inactive calls. The calls are words filed in the database; no cut-off is given here.

Legend:
[1] = system: Human immunodeficiency virus 1; assay: Antiviral activity against HIV1 LAV in PBMC; type: functional, organism-based; conditions: for EC50: Human immunodeficiency virus 1, LAV
[2] = system: Human immunodeficiency virus 1; assay: Antiviral activity against HIV1 BaL in PBMC; type: functional, organism-based; conditions: for EC50: Human immunodeficiency virus 1, BaL
[3] = Cytotoxicity against PBMC; type: cell-based; conditions: human

Structure (SMILES) | EC50 [1] [µM] | EC50 [2] [µM] | Activity [1] | Activity [2] | CC50 [3] [µM]
Oc1ccc(CN2CCN(Cc3ccc(O)c4ncccc34)CC2)c2cccnc12 |  |  | inactive | inactive | > 10
Oc1c(I)cc(Cl)c2cccnc12 [CLIOQUINOL] |  |  | inactive | inactive | 2
Oc1ccc(CCl)c2cccnc12 | 5.1 |  |  | inactive | > 10
Oc1ccc(CN2CCCNCCNCCCNCC2)c2cccnc12 | 4.1 | 4.35 |  |  | > 10
Oc1ccc(CN2CCCNCCCNCCNCCC2)c2cccnc12 | 1.5 | 1.25 |  |  | > 10
Oc1ccc(CN2CCCN(Cc3ccc(O)c4ncccc34)CCNCCCNCC2)c2cccnc12 | 4.1 |  |  | Toxic | 8
Oc1ccc(CNCCCNCc2ccc(O)c3ncccc23)c2cccnc12 |  |  | inactive | inactive | > 10
Oc1ccc(CNCc2ccc(CNCc3ccc(O)c4ncccc34)cc2)c2cccnc12 |  |  | inactive | inactive | > 10

Second part, led by results:

EC50 [1] [µM] | EC50 [2] [µM] | Structure (SMILES) | Activity [1] | Activity [2] | CC50 [3] [µM]
0.47 |  | c1cc(CN2CCCNCCNCCCNCC2)ccc1CN1CCCNCCNCCCNCC1 [PLERIXAFOR] |  | inactive | > 10
0.7 | 3.5 | Oc1ccc(CN2CCCNCCN(Cc3ccc(CN4CCCNCCNCCCNCC4)cc3)CCCNCC2)c2cccnc12 |  |  | > 10
0.05 |  | c1cc(CN2CCCNCCNCCCNCC2)cc(CN2CCCNCCNCCCNCC2)c1 |  | inactive | > 10
